One assay has as its system GABAA receptors. Type of assay: cell-based, mice. The following applies: for GABAergic miniature SSCs (mSSCs): BMI 100 μM, in presence of DNQX, D-AP5 and TTX, apoE3-KI and apoE4-KI mice. The source says:
ApoE3-KI and apoE4-KI mice (2-3 months) were sacrificed 2 weeks after retrovirus-GFP injection and processed for slice preparation as described (Duan et al., 2007; Ge et al., 2006a). Whole-cell voltage-clamp recordings from visually identified GFP^+ neurons (2 weeks after injection) were obtained with an infrared differential interference contrast video microscopy system.
Next the level of GABAergic synaptic innervation, which is critical for neuronal development of newborn hippocampal cells (Ge et al., 2006a; Ge et al., 2006b; Liu et al., 2006; Tozuka et al., 2005), was assessed. GABAergic miniature SSCs (mSSCs) were recorded from GFP^+ neurons (resting membrane potential Vm=−65 mV) 2 weeks after injection of the retrovirus-GFP construct. These studies were conducted in the presence of 6,7-dinitroquinoxaline-2,3-dione (DNQX) (20 μM) and D-(−)-2-amino-5-phosphonovaleric acid (D-AP5) (50 μM) to block glutamate-mediated currents and tetrodotoxin (TTX) (1 μM) to block action potential-mediated GABA release.
In the presence of DNQX and D-AP5, GABA-evoked postsynaptic currents (ePSCs) recorded from GFP^+ neurons were generated by electrical stimulation of GABAergic axons in the molecular layer of the dentate gyrus. This indicates a functional coupling between hilar GABAergic interneurons and newborn neurons in both apoE3-KI and apoE4-KI mice. However, the ePSC peak amplitude was ˜40% lower in apoE4-KI mice (FIGS. 6C, 6D, and 6F). This finding is consistent with a reduction of presynaptic GABAergic inputs onto newborn neurons available for electrical activation in apoE4-KI mice. […] This finding reconfirms the intact GABAA receptor function in newborn neurons of apoE4-KI mice.

Assay [1] has as its system dendritic development of newborn neurons. Briefly: Dendritic development of retrovirus-GFP labelled newborn hippocampal neurons. Type of assay: in vivo, mice.
Another assay relates to NSC proliferation. Briefly: Effect of GABAA receptor potentiator or antagonist treatment on NSC proliferation (BrdU+ cells in SGZ). In kind it is in vivo, mice. As to conditions: 1 day after BrdU injection. On the procedure: (§1) Female mice (3, 6-7, or 12-13 months of age) received two intraperitoneal injections of BrdU (Sigma, 100 mg/kg body weight) 6 h apart. One day, 3 days, and 4 and 10 weeks after the second injection, the brains were perfused with phosphate-buffered saline and collected.
To investigate the effect of GABAA receptor potentiator or antagonist treatment on NSC proliferation, female mice (6-7 months of age) were treated with once-daily intraperitoneal injections of pentobarbital (PB) (Sigma, 50 mg/kg; apoE4-KI mice) or picrotoxin (PTX) (Sigma, 4 mg/kg; apoE3-KI mice). Twenty-four hours after the last treatment, mice received two injections of BrdU (100 mg/kg) 6 h apart and were sacrificed 1 day later. […]
Mouse brains were fixed in 4% paraformaldehyde for 3 days, and coronal sections (40 μm) were cut continuously throughout the entire hippocampus with a vibratome. Single- or double-immunostained cells on both sides of the hippocampus of all stained sections were counted and calculated. Numbers of newborn cells (BrdU^+) and immature neurons (BrdU^+ and Dcx^+) in the SGZ were determined 1 or 3 days after BrdU injection; numbers of surviving newborn cells (BrdU^+) and mature neurons (BrdU^+ and NeuN^+) in the SGZ were determined 4 or 10 weeks after injection. Newborn neurons that had migrated from the SVZ to the OB were quantified 4 weeks after BrdU injection as reported (Galvão et al., 2008). […]

A further assay has as its system neuronal maturation. Description: Effect of GABAA receptor potentiator or antagonist treatment on neuronal maturation (SGZ, 4 weeks after BrdU). Type of assay: in vivo, mice. On the procedure:
as §1
To investigate the effect of GABAA receptor potentiator or antagonist treatment on NSC proliferation, female mice (6-7 months of age) were treated with once-daily intraperitoneal injections of pentobarbital (PB) (Sigma, 50 mg/kg; apoE4-KI mice) or picrotoxin (PTX) (Sigma, 4 mg/kg; apoE3-KI mice). Twenty-four hours after the last treatment, mice received two injections of BrdU (100 mg/kg) 6 h apart and were sacrificed 1 day later. To investigate the effect of GABAA receptor potentiator or antagonist treatment on neuronal maturation, female mice (6-7 months of age) received two injections of BrdU 6 h apart. Twenty-four hours later, apoE3-KI mice received daily injections of PTX for 7 consecutive days, and apoE4-KI mice received daily injections of PB for 28 consecutive days. Mice were sacrificed 4 weeks after the second BrdU injection.
Mouse brains were fixed in 4% paraformaldehyde for 3 days, and coronal sections (40 μm) were cut continuously throughout the entire hippocampus with a vibratome. Every eighth section was immunostained with various primary and secondary antibodies and examined with a laser-scanning confocal system.
Immunostaining was carried out with anti-BrdU (mouse monoclonal, Chemicon, 1:400; or rat monoclonal, Abcam, 1:400) and/or with antibodies against other cellular markers, including mouse anti-NeuN (Chemicon, 1:400), mouse anti-nestin (Chemicon, 1:50), goat anti-Dcx (Santa Cruz Biotechnology, 1:40), goat anti-Sox2 (Santa Cruz Biotechnology, 1:350), rabbit anti-GFAP (Invitrogen, 1:400), mouse anti-β-III-tubulin (Promega, 1:800), mouse anti-S100β (Abcam, 1:400), and rat anti-Noggin (R&D Systems, 1:200). Corresponding secondary antibodies (Texas Red and fluorescein, 1:250, Vector Laboratories) were used. For Ki67, somatostatin, and GAD67 immunostaining, rabbit anti-Ki67 (Bethyl Labs, 1:1000), rat anti-somatostatin (Chemicon, 1:100), and mouse anti-GAD67 (Chemicon, 1:1500) were used with biotinylated goat anti-rabbit IgG (1:250), rabbit anti-rat IgG (1:250), and rabbit anti-mouse IgG (1:250) as secondary antibodies and diaminobenzadine as a chromagen (Dako).
Mouse brains were fixed in 4% paraformaldehyde for 3 days, and coronal sections (40 μm) were cut continuously throughout the entire hippocampus with a vibratome. Single- or double-immunostained cells on both sides of the hippocampus of all stained sections were counted and calculated. Numbers of newborn cells (BrdU^+) and immature neurons (BrdU^+ and Dcx^+) in the SGZ were determined 1 or 3 days after BrdU injection; numbers of surviving newborn cells (BrdU^+) and mature neurons (BrdU^+ and NeuN^+) in the SGZ were determined 4 or 10 weeks after injection. Newborn neurons that had migrated from the SVZ to the OB were quantified 4 weeks after BrdU injection as reported (Galvão et al., 2008). The number of GABAergic interneurons in the hilus of the dentate gyrus was determined by counting GAD67- and somatostatin-positive cells.

Another assay has as its system NSCs from apoE-KO mice. Briefly: NSC culture and neural differentiation in vitro. In kind it is cell-based. As to conditions: neuronal differentiation conditions, Noggin 500 ng/ml. Here is the method:
NSCs were isolated from brains of apoE3-KI, apoE4-KI, wildtype, and apoE-KO mice at postnatal day 1 (P1) using a modified neurosphere method (Brewer and Torricelli, 2007; Ray and Gage, 2006). The expression of apoE and Noggin in NSCs with different apoE genotypes was assessed by anti-apoE and anti-Noggin (R&D Systems) western blots of cell lysates. Neural differentiation of the established NSCs with different apoE genotypes was induced in vitro as reported (Song et al., 2002). In some experiments, recombinant mouse Noggin (R&D Systems) was added at 500 ng/ml into the medium during neural differentiation. Neuronal and astrocytic differentiation of NSCs at 7 days was determined and quantified.

[2] abbreviates: apoE4-KI mice, daily PB for 4 weeks.
Setting [3] is: apoE3-KI mice, daily PTX for 7 days, 4 weeks after BrdU injection.

This is an account of results in US20110135611A1 (priority 2009, published 2011).

Like-named read-outs stand apart in the source and are kept apart here.

Consider `C[N+]1(C)CCc2cc3c(cc2[C@H]1[C@@H]1OC(=O)c2c1ccc1c2OCO1)OCO3.[I-]` [Bicuculline methoiodide], for which the “ePSCs (evoked postsynaptic currents)” value in the assay with GABAA receptors (BMI 100 μM bath application, in presence of DNQX and D-AP5) is listed as “Currents were blocked”. For the same molecule, the figures for the “GABAergic miniature SSCs (mSSCs)” value in the assay on GABAA receptors and in the assay on GABAA receptors (listed as BMI) were “abolished the mSSCs” and “The mSSCs were blocked”, respectively.
For the molecule `NCCCC(=O)O` [GABA, gamma-aminobutyric acid], the “current amplitudes evoked by focal application” value in the assay on GABAA receptors (exogenous GABA 500 μM, GFP+ neurons from apoE3-KI vs apoE4-KI mice) is “evoked similar current amplitudes in GFP^+ neurons from apoE3-KI and apoE4-KI mice”.
For the molecule `CCCC(C)C1(CC)C(=O)NC(=O)NC1=O` (stereo not drawn) [pentobarbital], in assay [1] (apoE3-KI mice treated with PB), the “length of dendritic branches of newborn neurons” value was “did not alter the length or number of dendritic branches” and the “number of dendritic branches of newborn neurons” value was “did not alter the length or number of dendritic branches”. For the same molecule, in assay [1] (apoE4-KI mice treated with PB), the “dendritic branch number of newborn neurons” value is “increases in both dendritic length and branch number to levels similar to those in wildtype and apoE3-KI mice”; the “dendritic length of newborn neurons” value is “increases in both dendritic length and branch number to levels similar to those in wildtype and apoE3-KI mice”. For the same molecule, the “number of dendritic branches of newborn neurons” value in assay [1] (wildtype mice treated with PB) is recorded as “trend toward significant increase (p=0.053)”. In addition, in the assay with NSC proliferation (apoE4-KI mice, PB 50 mg/kg i.p. once daily), the “number of newborn cells (BrdU+) in the SGZ” value was “decreased the number of newborn cells to levels similar to those of wildtype and untreated apoE3-KI mice”. For the same molecule, in the assay with neuronal maturation (setting [2]), the “number of immature neurons” value is recorded as “decreased the number of immature neurons” and the “number of mature neurons” value is reported as “increased the number of mature neurons”.
As to picrotoxin, the “number of newborn cells (BrdU+) in the SGZ” value in the assay on NSC proliferation (apoE3-KI mice, PTX 4 mg/kg i.p. once daily for 3 days) is listed as “increased the number of newborn cells 1 day after BrdU injection to a level similar to that in untreated apoE4-KI mice”. For the same molecule, in the assay on neuronal maturation (setting [3]), the “number of immature neurons” value is reported as “the number of immature neurons was increased”, the “number of mature neurons” value is listed as “the number of mature neurons was decreased” and the “survival of newborn cells” value is “the survival of newborn cells was unaltered”.

B1: recombinant mouse Noggin: recombinant mouse Noggin (R&D Systems), bone-morphogenetic protein (BMP) inhibitor (protein, UniProt P97466 28-232, looked up)
Noggin: QHYLHIRPAPSDNLPLVDLIEHPDPIFDPKEKDLNETLLRSLLGGHYDPGFMATSPPEDRPGGGGGPAGGAEDLAELDQLLRQRPSGAMPSEIKGLEFSEGLAQGKKQRLSKKLRRKLQMWLWSQTFCPVLYAWNDLGSRFWPRYVKVGSCFSKRSCSVPEGMVCKPSKSVHLTVLRWRCQRRGGQRCGWIPIQYPIISECKCSC
For the molecule B1, in the assay with NSCs from apoE-KO mice, the astrogenesis result is given as “inhibited astrogenesis” and the neurogenesis entry is recorded as “stimulated neurogenesis to levels similar to those of NSCs from wildtype mice”.
